Our source for the IC50 values is patent US20230049231A1 (priority 2019, published 2023).

Some results are limits rather than exact numbers.

In assay [1] the target is T1, Kv1.3 potassium channel (Homo sapiens, UniProt P22001).
T1 construct: expressed in transfected cells
Put plainly: Kv1.3 potassium channel blocker activity, automated whole-cell patch clamp (Patchliner). The class given is cell-based. The protocol: This assay is used to evaluate the disclosed compounds' activities as Kv1.3 potassium channel blockers.
CHO-K1 cells stably expressing Kv1.3 were grown in DMEM containing 10% heat-inactivated FBS, 1 mM sodium pyruvate, 2 mM L-glutamine and G418 (500 μg/ml). Cells were grown in culture flasks at 37° C. in a 5% CO2-humidified incubator.
(§1) The cells were bathed in an extracellular solution containing 140 mM NaCl, 4 mM KCl, 2 mM CaCl2), 1 mM MgCl2, 5 mM glucose, and 10 mM HEPES; pH adjusted to 7.4 with NaOH; 295-305 mOsm. The internal solution contained 50 mM KCl, 10 mM NaCl, 60 mM KF, 20 mM EGTA, and 10 mM HEPES; pH adjusted to 7.2 with KOH; 285 mOsm. All compounds were dissolved in DMSO at 30 mM. Compound stock solutions were freshly diluted with external solution to concentrations of 30 nM, 100 nM, 300 nM, 1 μM, 3 μM, 10 μM, 30 μM and 100 μM. The highest content of DMSO (0.3%) was present in 100 μM.
The currents were evoked by applying 100 ms depolarizing pulses from −90 mV (holding potential) to +40 mV were applied with 0.1 Hz frequency. Control (compound-free) and compound pulse trains for each compound concentration applied contained 20 pulses.
10-second breaks were used between pulse trains (see Table 2 below).
Whole-cell current recordings and compound application were enabled by means of an automated patch clamp platform Patchliner (Nanion Technologies GmbH). EPC 10 patch clamp amplifier (HEKA Elektronik Dr. Schulze GmbH) along with Patchmaster software (HEKA Elektronik Dr. Schulze GmbH) was used for data acquisition. Data were sampled at 10 kHz without filtering. Passive leak currents were subtracted online using a P/4 procedure (HEKA Elektronik Dr. Schulze GmbH). Increasing compound concentrations were applied consecutively to the same cell without washouts in between. Total compound incubation time before the next pulse train was not longer than 10 seconds. Peak current inhibition was observed during compound equilibration.
(§2) AUC and peak values were obtained with Patchmaster (HEKA Elektronik Dr. Schulze GmbH). To determine IC50, the last single pulse in the pulse train corresponding to a given compound concentration was used. Obtained AUC and peak values in the presence of compound were normalized to control values in the absence of compound. Using Origin (OridinLab), IC50 was derived from data fit to Hill equation: Icompound/Icontrol=(100−A)/(1+([compound]/IC50)nH)+A, where IC50 value is the concentration at which current inhibition is half-maximal, [compound] is the applied compound concentration, A is the fraction of current that is not blocked and nH is the Hill coefficient.
(In general: The patch-clamp technique gives a direct electrical read-out from membranes.)

The target in assay [2] is T2, hERG channel (Homo sapiens, UniProt Q12809).
T2 construct: expressed in transfected cells
T2 sequence (Q12809 whole entry): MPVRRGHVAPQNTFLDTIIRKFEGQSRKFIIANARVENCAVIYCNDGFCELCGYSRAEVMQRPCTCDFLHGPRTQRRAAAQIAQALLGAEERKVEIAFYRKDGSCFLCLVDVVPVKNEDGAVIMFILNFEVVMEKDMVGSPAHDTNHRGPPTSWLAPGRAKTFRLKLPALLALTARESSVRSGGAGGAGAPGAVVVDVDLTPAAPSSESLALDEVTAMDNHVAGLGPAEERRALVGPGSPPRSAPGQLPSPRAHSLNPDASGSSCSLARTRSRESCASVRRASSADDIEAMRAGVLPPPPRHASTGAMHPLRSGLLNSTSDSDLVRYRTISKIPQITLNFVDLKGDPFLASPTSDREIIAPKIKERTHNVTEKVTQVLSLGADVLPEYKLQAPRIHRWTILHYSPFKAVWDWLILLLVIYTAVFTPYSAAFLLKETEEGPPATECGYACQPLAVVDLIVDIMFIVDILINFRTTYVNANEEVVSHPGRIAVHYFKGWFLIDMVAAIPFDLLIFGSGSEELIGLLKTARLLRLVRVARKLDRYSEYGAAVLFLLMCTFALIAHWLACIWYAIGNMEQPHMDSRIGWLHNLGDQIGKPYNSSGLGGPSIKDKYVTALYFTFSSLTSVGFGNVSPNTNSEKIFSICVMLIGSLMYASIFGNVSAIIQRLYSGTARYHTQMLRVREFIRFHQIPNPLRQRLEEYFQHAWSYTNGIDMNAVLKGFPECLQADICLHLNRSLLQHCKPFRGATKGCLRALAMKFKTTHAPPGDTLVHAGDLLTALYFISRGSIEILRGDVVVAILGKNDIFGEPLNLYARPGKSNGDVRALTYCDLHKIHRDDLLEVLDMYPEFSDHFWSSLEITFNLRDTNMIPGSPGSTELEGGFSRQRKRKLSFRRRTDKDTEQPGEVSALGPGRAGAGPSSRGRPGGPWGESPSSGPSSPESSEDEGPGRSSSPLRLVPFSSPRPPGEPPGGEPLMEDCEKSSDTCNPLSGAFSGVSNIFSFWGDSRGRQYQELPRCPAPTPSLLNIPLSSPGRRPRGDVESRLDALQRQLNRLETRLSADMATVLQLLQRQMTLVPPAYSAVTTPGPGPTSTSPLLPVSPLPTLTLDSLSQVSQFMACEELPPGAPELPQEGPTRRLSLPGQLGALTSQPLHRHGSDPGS
The assay is described as follows: hERG electrophysiology, automated whole-cell patch clamp (Patchliner). It is filed as cell-based. On the procedure: This assay is used to evaluate the disclosed compounds' inhibition activities against the hERG channel.
CHO-K1 cells stably expressing hERG were grown in Ham's F-12 Medium with glutamine containing 10% heat-inactivated FBS, 1% penicillin/streptomycin, hygromycin (100 μg/ml) and G418 (100 μg/ml). Cells were grown in culture flasks at 37° C. in a 5% CO2-humidified incubator.
as §1
The voltage protocol (see Table 3) was designed to simulate voltage changes during a cardiac action potential with a 300 ms depolarization to +20 mV (analogous to the plateau phase of the cardiac action potential), a repolarization for 300 ms to −50 mV (inducing a tail current) and a final step to the holding potential of −80 mV. The pulse frequency was 0.3 Hz. Control (compound-free) and compound pulse trains for each compound concentration applied contained 70 pulses.
Whole-cell current recordings and compound application were enabled by means of an automated patch clamp platform Patchliner (Nanion). EPC 10 patch clamp amplifier (HEKA) along with Patchmaster software (HEKA Elektronik Dr. Schulze GmbH) was used for data acquisition. Data were sampled at 10 kHz without filtering. Increasing compound concentrations were applied consecutively to the same cell without washouts in between.
as §2, with “PEAK” for “peak”, “IC50” for “IC50,”, “Icompound/Icontrol=(100-A)/(1+([compound]/IC50)nH)+A,” for “Icompound/Icontrol=(100−A)/(1+([compound]/IC50)nH)+A,”, “IC50” for “IC50 value”
(In general: The hERG channel carries a current that helps repolarise heart muscle cells.)

Setting [3] is: Kv1.3 potassium channel, whole-cell patch clamp.
The mark [4] stands for this setting: hERG channel, whole-cell patch clamp.
[5] abbreviates: CHO-K1 cells stably expressing Kv1.3, 100 ms pulses from -90 mV to +40 mV, 0.1 Hz.
The mark [6] stands for this setting: CHO-K1 cells stably expressing hERG, +20 mV 300 ms, -50 mV 300 ms tail current, 0.3 Hz.

T1 sequence (P22001 whole entry): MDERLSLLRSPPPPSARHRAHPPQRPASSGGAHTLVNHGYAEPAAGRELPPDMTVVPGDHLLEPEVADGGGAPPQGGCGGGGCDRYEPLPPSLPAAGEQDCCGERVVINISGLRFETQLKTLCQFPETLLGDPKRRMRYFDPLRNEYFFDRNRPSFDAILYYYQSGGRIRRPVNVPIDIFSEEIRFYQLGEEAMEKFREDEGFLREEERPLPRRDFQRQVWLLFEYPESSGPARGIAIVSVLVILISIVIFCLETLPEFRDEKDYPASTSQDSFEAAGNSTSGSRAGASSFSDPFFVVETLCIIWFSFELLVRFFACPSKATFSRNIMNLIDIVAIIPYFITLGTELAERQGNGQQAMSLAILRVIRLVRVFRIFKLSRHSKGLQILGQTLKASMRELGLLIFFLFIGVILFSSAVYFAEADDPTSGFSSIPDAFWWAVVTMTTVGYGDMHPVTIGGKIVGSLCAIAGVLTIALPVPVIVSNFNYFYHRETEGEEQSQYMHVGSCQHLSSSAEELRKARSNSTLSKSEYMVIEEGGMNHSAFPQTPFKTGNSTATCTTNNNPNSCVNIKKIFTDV

In the case of `O=C1CN([C@H]2CCNC2)C[C@@H]2C[C@H](c3c(O)ccc(Cl)c3Cl)CN12` [Compound 142, (7R,8aS)-7-(2,3-dichloro-6-hydroxyphenyl)-2-[(3S)-pyrrolidin-3-yl]-hexahydropyrrolo [1,2-a]pyrazin-4-one], the IC50 was below 1 µM in assay [1] (setting [3]) and above 30 µM in assay [2] (setting [4]).
On to `NC(=O)[C@@H]1OC(=O)N2C[C@@H](c3c(O)ccc(Cl)c3Cl)C[C@@H]12` (single isomer, unassigned) [Compound 286], for which the figures for the IC50 in assay [1] (setting [3]) and in assay [2] (setting [4]) were below 1 µM and above 30 µM, respectively.
The like results for `O=C1CN([C@H]2C[C@H](O)C2)C[C@@H]2C[C@H](c3c(O)ccc(Cl)c3Cl)CN12` (relative stereo) [Compound 125, (7R,8aS)-7-(2,3-dichloro-6-hydroxyphenyl)-2-[(1r,3S)-rel-3-hydroxycyclobutyl] hexahydropyrrolo [1,2-a]pyrazin-4-one] were, in that order, below 1 µM and above 30 µM.
Regarding `O=C1C[C@H](N2CC(O)C2)C[C@@H]2C[C@H](c3c(O)ccc(Cl)c3Cl)CN12` (single isomer, unassigned) [Compound 197], the values for the IC50 in assay [1] (setting [3]) and in assay [2] (setting [4]) were below 1 µM and above 30 µM, respectively.
The like results for `O=C1CN([C@H]2CC[C@@H]2O)C[C@@H]2C[C@H](c3c(O)ccc(Cl)c3Cl)CN12` (relative stereo) [Compound 158, (7R,8aS)-7-(2,3-dichloro-6-hydroxyphenyl)-2-[(1R,2R)-rel-2-hydroxycyclobutyl]-hexahydropyrrolo[1,2-a]pyrazin-4-one] were, in that order, below 1 µM and above 30 µM.
As to `O=C(C1CNC1)N1CC(=O)N2CC[C@@H](c3c(O)ccc(Cl)c3Cl)C[C@H]2C1` (relative stereo) [Compound 32, (8S,9aR)-rel-2-(azetidine-3-carbonyl)-8-(2,3-dichloro-6-hydroxyphenyl)-hexahydro-1H-pyrido[1,2-a]pyrazin-4-one], the IC50 in assay [1] (setting [5]) was below 1 µM; in assay [2] (setting [6]), above 30 µM.
As for `C[C@@H](C1CNC1)N1CC(=O)N2C[C@@H](c3c(O)ccc(Cl)c3Cl)C[C@H]2C1` (single isomer, unassigned) [Compound 137], the IC50 in assay [1] (setting [3]) was below 1 µM; in assay [2] (setting [4]), above 30 µM.
Regarding `C[C@H]1[C@@H]2C[C@H](c3c(O)ccc(Cl)c3Cl)CCN2C(=O)CN1C(=O)CO` (single isomer, unassigned; isomer 2) [Compound 84], the IC50 was below 1 µM in assay [1] (setting [3]) and above 30 µM in assay [2] (setting [4]).
Take `CC(C)(O)CN1CC(=O)N2C[C@@H](c3c(O)ccc(Cl)c3Cl)C[C@H]2C1` [Compound 148, (7R,8aS)-7-(2,3-dichloro-6-hydroxyphenyl)-2-(2-hydroxy-2-methylpropyl)-hexahydropyrrolo[1,2-a]pyrazin-4-one]: the results for the IC50 in assay [1] (setting [3]) and in assay [2] (setting [4]) were below 1 µM and above 30 µM, respectively.
For `CC1(C)OC(=O)N2C[C@@H](c3c(O)ccc(Cl)c3Cl)C[C@H]2C1O` (stereo partly drawn) [Compound 257, (4aS,6R)-6-(2,3-dichloro-6-hydroxyphenyl)-4-hydroxy-3,3-dimethylhexahydro-1H-pyrrolo[1,2-c][1,3]oxazin-1-one] the same measures were below 1 µM and above 30 µM.
For `NCC1CC(=O)N2C[C@@H](c3c(O)ccc(Cl)c3Cl)C[C@H]2C1` (stereo partly drawn) [Compound 217, (2R,8aR)-7-(aminomethyl)-2-(2,3-dichloro-6-hydroxyphenyl)-hexahydro-1H-indolizin-5-one] the same measures were below 1 µM and above 30 µM.
For `O=C1C[C@@H](CN2CC(O)C2)C[C@@H]2C[C@H](c3c(O)ccc(Cl)c3Cl)CN12` (single isomer, unassigned) [Compound 242] the same measures were below 1 µM and above 30 µM.
For the molecule `O=C1CN(c2cnc(CO)cn2)C[C@@H]2C[C@H](c3c(O)ccc(Cl)c3Cl)CN12` [Compound 172], the values for the concentration for half-maximal inhibition (IC50) in assay [1] (setting [3]) and in assay [2] (setting [4]) were below 1 µM and below 30 µM, respectively.
For `CO[C@H](CO)C(=O)N1CC(=O)N2C[C@@H](c3c(O)ccc(Cl)c3Cl)C[C@H]2C1` [Compound 14, (7R,8aS)-7-(2,3-dichloro-6-hydroxyphenyl)-2-[(2R)-3-hydroxy-2-methoxypropanoyl]-hexahydropyrrolo[1,2-a]pyrazin-4-one], the IC50 is below 1 µM in assay [1] (setting [5]) and above 30 µM in assay [2] (setting [6]).
For `C[C@]1(CO)OC(=O)N2C[C@@H](c3c(O)ccc(Cl)c3Cl)C[C@H]21` (single isomer, unassigned) [Compound 264], the IC50 was below 1 µM in assay [1] (setting [3]) and above 30 µM in assay [2] (setting [4]).
With `O=C(CO)N1CC(=O)N2CC[C@@H](c3c(O)ccc(Cl)c3Cl)C[C@H]2C1` [Compound 63, (8R,9aS)-8-(2,3-dichloro-6-hydroxyphenyl)-2-(2-hydroxyacetyl)-hexahydro-1H-pyrido[1,2-a]pyrazin-4-one], the figures for the half-maximal inhibitory concentration (IC50) in assay [1] (setting [3]) and in assay [2] (setting [4]) were below 1 µM and below 30 µM, respectively.
The like results for `O=C(N1CC(CO)C1)N1CC(=O)N2C[C@@H](c3c(O)ccc(Cl)c3Cl)C[C@H]2C1` [Compound 103, (7R,8aS)-7-(2,3-dichloro-6-hydroxypheny1)-2-[3-(hydroxymethyl)azetidine-1-carbonyl]-hexahydropyrro[1,2-a]pyrazine-4-one] were, in that order, below 1 µM and above 30 µM.
The like results for `O=C1CC(N2CCOCC2)C[C@@H]2C[C@H](c3c(O)ccc(Cl)c3Cl)CN12` (stereo partly drawn) [Compound 195, (2R,8aS)-2-(2,3-dichloro-6-hydroxyphenyl)-7-(morpholin-4-yl)-hexahydro-1-indolizin-5-one] were, in that order, below 1 µM and below 30 µM.
With `O=C1C[C@@H](c2cn[nH]c2)C[C@@H]2C[C@H](c3c(O)ccc(Cl)c3Cl)CN12` (single isomer, unassigned) [Compound 215], the 50% inhibitory concentration (IC50) in assay [1] (setting [3]) was below 1 µM; in assay [2] (setting [4]), above 30 µM.
On to `O=C1O[C@@H](CO)C[C@@H]2C[C@H](c3c(O)ccc(Cl)c3Cl)CN12` (single isomer, unassigned) [Compound 269], for which the results for the IC50 in assay [1] (setting [3]) and in assay [2] (setting [4]) were below 1 µM and above 30 µM, respectively.
For `O=C1CN(C2CCNCC2)C[C@@H]2C[C@H](c3c(O)ccc(Cl)c3Cl)CN12` [Compound 141, (7R,8aS)-7-(2,3-dichloro-6-hydroxyphenyl)-2-(piperidin-4-yl)-hexahydropyrrolo [1,2-a]pyrazin-4-one] the same measures were below 1 µM and above 30 µM.
Turning to `CC(CO)(CO)N1CC(=O)N2C[C@@H](c3c(O)ccc(Cl)c3Cl)C[C@H]2C1` [Compound 162, (7R,8aS)-7-(2,3-dichloro-6-hydroxyphenyl)-2-(1,3-dihydroxy-2-methylpropan-2-yl)-hexahydropyrrolo[1,2-a]pyrazin-4-one], the IC50 in assay [1] (setting [3]) was below 1 µM; in assay [2] (setting [4]) it was above 30 µM.
Regarding `O=C1CN(CCN2CCNCC2)C[C@@H]2C[C@H](c3c(O)ccc(Cl)c3Cl)CN12` [Compound 120, (7R,8aS)-7-(2,3-dichloro-6-hydroxyphenyl)-2-[2-(piperazin-1-yl)ethyl]-hexahydropyrrolo [1,2-a]pyrazin-4-one], the values for the IC50 in assay [1] (setting [3]) and in assay [2] (setting [4]) were below 1 µM and above 30 µM, respectively.

A word on the IC50: it is the point on the concentration scale where inhibition reaches its midpoint.
